Measurements as given in the NIST ThermoML archive (doi:10.1016/j.jct.2018.05.027).

Experiment: xn = mol fraction of the nth substance listed
Details: Liquid, Vibrating wire viscometry

Cc1ccc(C)c(C)c1 [1,2,4-trimethylbenzene] + CCC(C)O
viscosity [mPa·s]
Details	x2 = 0.3011	x2 = 0.5001	x2 = 0.7999
333.15 K, 100 kPa	0.539	0.5777	0.7185
333.15 K, 1000 kPa	0.5411	0.5881	0.7301
333.15 K, 5000 kPa	0.571	0.6122	0.7583
333.15 K, 10000 kPa	0.5928	0.6383	0.7963
333.15 K, 20000 kPa	0.634	0.6899	0.8656
333.15 K, 30000 kPa	0.6817	0.739	0.9569
333.15 K, 40000 kPa	0.7313	0.7961	1.039
333.15 K, 50000 kPa	0.784	0.8558	1.13
333.15 K, 60000 kPa	0.8388	0.9176	1.219
333.15 K, 70000 kPa	0.8962	0.9822	1.321
333.15 K, 80000 kPa	0.9559	1.046	1.424
333.15 K, 100000 kPa	1.089	1.196	1.653
333.15 K, 120000 kPa	1.238	1.366	1.898
333.15 K, 140000 kPa	1.385	1.528	2.144
353.15 K, 100 kPa	0.43	0.4439	0.4963
353.15 K, 1000 kPa	0.436	0.4481	0.5
353.15 K, 5000 kPa	0.4507	0.467	0.5157
353.15 K, 10000 kPa	0.4678	0.4891	0.5386
353.15 K, 20000 kPa	0.4988	0.5215	0.584
353.15 K, 30000 kPa	0.5358	0.5615	0.6316
353.15 K, 40000 kPa	0.57	0.5952	0.6809
353.15 K, 50000 kPa	0.605	0.6372	0.7349
353.15 K, 60000 kPa	0.645	0.6813	0.7906
353.15 K, 70000 kPa	0.6863	0.726	0.849
353.15 K, 80000 kPa	0.7294	0.7743	0.9092
353.15 K, 100000 kPa	0.821	0.871	1.04
353.15 K, 120000 kPa	0.9204	0.9782	1.175
353.15 K, 140000 kPa	1.038	1.093	1.339
